Experiments:
[1] = Blood-brain barrier penetration: DFO concentration in rat brain after IP injection; assay type: in vivo; details: for fraction of DFO that infiltrated the brain / DFO (mg/g organ) / DFO (mg/whole organ): SD rats; for fraction of DFO that infiltrated the brain: 90 min; for DFO (mg/g organ): brain; for DFO (mg/whole organ): whole brain
Description: In this study, the ability of the Zn-DFO complex to infiltrate into the brain was examined. Rats were injected intraperitoneally (IP) with increasing amounts of DFO alone or Zn-DFO complex, and the concentration of DFO was measured in their brains, thus monitoring their infiltrability.
(§1) In particular, male Sprague-Dawley (SD) rats (300 g average body weight, 3 animals per group) were injected IP with DFO (250, 500, or 1000 mg/kg body weight). For comparison, Zn-DFO solution in freshly prepared saline was injected IP (250, 500, or 1000 mg/kg body weight, which are equivalent to 221, 442, or 883 mg DFO/kg body weight, respectively).
(§2) The behavior of the rats was monitored for 90 min following the injection. Then, the animals were euthanized using an injection of ketamine-xylazine, and their hearts, livers, left kidneys, and brains were excised and weighted. Brain samples (300 mg tissue) were washed homogenized in 3 ml Lysis buffer. Tissue homogenates were incubated at 110° C. for 5 min and centrifuged for 5 min at 14,500 relative centrifugal force (RCF). An equal volume of 40% trichloroacetic acid (TCA) solution was added, forming a solution containing 20% TCA, which was vortexed and centrifuged again. The supernatants were transferred into cuvettes, and DFO concentration was spectrophotometrically measured, after addition of 10 mM of ferric iron solution (as a weak complex of iron, ferric-nitrilo-triacetate, at pH=7.4), and scanning the range of λ=380−580 nm. The final concentration was calculated according to the Beer-Lambert law, using εDFO=2460 M^−1cm^−1: the total amount of DFO per gram tissue and per whole brain were calculated.

[2] = Behavior of rats monitored for 90 min following IP injection; assay type: in vivo, rat; details: the three doses (250, 500, 1000 mg/kg IP)
Description: as §1, §2

[3] = system: Experimental Autoimmune Encephalomyelitis (EAE) model; assay: Murine Experimental Autoimmune Encephalomyelitis (EAE) model of multiple sclerosis; assay type: in vivo, C57BL/6 mice; details: glatiramer acetate 200 μg SC on day 0, alone
Description: In this study, the therapeutic effect of treatment with glatiramer acetate (Copaxone®) alone or in combination with Zn-DFO on multiple sclerosis (MS) is tested, using the murine Experimental Autoimmune Encephalomyelitis (EAE) model.
EAE is induced in 8-week-old female C57BL/6 mice by subcutaneous (SC) injection of 125 μg of myelin oligodendrocyte glycoprotein 35-55 peptide (MOG35-55) emulsified in complete Freund's adjuvant (CFA) containing 5 mg/ml heat-killed Mycobacterium tuberculosis into the left para-lumbar region. Immediately thereafter, and again at 48 h, the mice are inoculated intraperitoneal (IP) with 0.5 ml of pertussis toxin (400 ng). Seven days later, the mice are further challenged with an additional injection of MOG35-55 peptide in CFA injected into the right para-lumbar region.
Mice are treated with SC injection of 200 (μg glatiramer acetate (Copaxone®) per animal in mannitol 4% emulsion on day 0. Part of the animals are continued to be treated with Zn-DFO as IP injections, 2 mg/kg or 6 mg/kg, thrice a week till the end of the experiment (Day 28). Two additional groups of mice are treated with Zn-DFO analogously, but without the preceding injection with glatiramer acetate. The severity of the disease is assessed using the scale shown in Table 2 (Bittner et al. 2014).

MS = details: cited from earlier work
[4] = 90 min after IP injection of 250 mg/kg
[5] = 90 min after IP injection of 500 mg/kg
[6] = 90 min after IP injection of 1000 mg/kg

Row | Compound | fraction of DFO that infiltrated the brain ([1]; IP 250 mg/kg) [%] | fraction of DFO that infiltrated the brain ([1]; IP 500 mg/kg) [%] | fraction of DFO that infiltrated the brain ([1]; IP 1000 mg/kg) [%] | DFO (mg/g organ) [1, 4] [mg/g organ] | DFO (mg/g organ) [1, 5] [mg/g organ] | DFO (mg/g organ) [1, 6] [mg/g organ] | fraction of DFO that had infiltrated into the brain ([1]; corresponding doses (250, 500, 1000 mg/kg IP), limited sensitivity of the instrument) [%] | DFO (mg/whole organ) [1, 4] [mg/whole organ] | DFO (mg/whole organ) [1, 5] [mg/whole organ] | DFO (mg/whole organ) [1, 6] [mg/whole organ] | rats' behavior after injection [2] | day on which peak clinical score is reached [3] [days] | onset of the disease [3] [days] | effect on the main outcome measures in MS (disease progression) (MS; La Mantia et al., 2010) | reduction of relapses (MS; relapsing-remitting MS, Hassan-Smith et al., 2011)
1 | CC(=O)N(O)CCCCCNC(=O)CCC(=O)N(O)CCCCCNC(=O)CCC(=O)N(O)CCCCCN [DFO, N′-[5-(acetyl-hydroxy-amino)pentyl]-N-[5-[3-(5-aminopentyl-hydroxy-carbamoyl)propanoylamino]pentyl]-N-hydroxy-butane diamide] | <0.0015 | <0.0015 | 0.002 | <0.005 | <0.005 | 0.008 ± 0.004 | ≤ 0.002 | <0.005 | <0.005 | 0.019 ± 0.008 | no changes in rats' behavior |  |  |  | 
2 | glatiramer acetate |  |  |  |  |  |  |  |  |  |  |  | 17 | 14 | did not show any beneficial effect | approximately 30%

Source: patent US20240252461A1, “COMPOSITIONS AND METHODS FOR TREATMENT OF DEMYELINATION” (priority 2018, published 2024)
